Target: Acetylcholinesterase (Homo sapiens, UniProt P22303)
Test: AChE Inhibition Assay
Details: pH 7.4; 37 °C
Experimental: The reaction was carried out at 37°C in 70 mM phosphate buffer (Na2HPO4/NaH2PO4, pH 7.4) containing the enzyme (20 μl volume, diluted 100 times in phosphate buffer, pH 7.4), DTNB (5,5-dithiobis(2-nitrobenzoic acid)) (10−4M concentration) and ATCh (1.35 × 10−4M concentration). The absorbance change at 37°C was monitored with the spectrophotometer at 412 nm for 3 min. and three replicates were run in each experiment.

Chain of Acetylcholinesterase (P22303 whole entry): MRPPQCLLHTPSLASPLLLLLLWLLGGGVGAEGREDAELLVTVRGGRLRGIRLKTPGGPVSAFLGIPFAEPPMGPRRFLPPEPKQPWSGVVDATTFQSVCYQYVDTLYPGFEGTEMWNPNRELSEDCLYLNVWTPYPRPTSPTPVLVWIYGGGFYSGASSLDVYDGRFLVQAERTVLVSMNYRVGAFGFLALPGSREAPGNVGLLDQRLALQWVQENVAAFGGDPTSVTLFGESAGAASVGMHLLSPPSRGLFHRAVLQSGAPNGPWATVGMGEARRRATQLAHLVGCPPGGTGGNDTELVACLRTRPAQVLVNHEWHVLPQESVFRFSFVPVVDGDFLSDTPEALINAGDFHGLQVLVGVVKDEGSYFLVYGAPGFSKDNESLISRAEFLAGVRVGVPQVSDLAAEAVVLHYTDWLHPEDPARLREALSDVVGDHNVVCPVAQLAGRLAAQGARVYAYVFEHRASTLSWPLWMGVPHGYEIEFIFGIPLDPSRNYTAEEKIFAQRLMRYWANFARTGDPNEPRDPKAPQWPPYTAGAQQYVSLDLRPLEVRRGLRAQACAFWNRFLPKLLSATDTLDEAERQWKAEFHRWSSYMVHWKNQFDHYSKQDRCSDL

Row | Compound | IC50 [mM]
1 | CCCCCN(CP(=O)(O)O)CP(=O)(O)O [N-Pentyliminobis(methylenephosphonic acid) (4)] | 11.7
2 | CCCN(CP(=O)(O)O)CP(=O)(O)O [N-Propyliminobis(methylenephosphonic acid) (3)] | 12.7
3 | CC(C)N(CP(=O)(O)O)CP(=O)(O)O [N-Isopropyliminobis(methylenephosphonic acid) (5)] | 9.11
4 | CCCCC(CC)CN(CP(=O)(O)O)CP(=O)(O)O (stereo unspecified) [N-2-Ethyl hexyliminobis(methylenephosphonic acid) (6)] | 9.48
5 | O=P(O)(O)CN(CP(=O)(O)O)C1CCCC1 [N-Cyclopentyliminobis(methylenephosphonic acid) (9)] | 11.1
6 | O=P(O)(O)CN(CCc1ccccc1)CP(=O)(O)O [N-2-Phenyl ethyliminobis(methylenephosphonic acid) (8)] | 11
7 | CN(CP(=O)(O)O)CP(=O)(O)O [N-Methyliminobis(methylenephosphonic acid) (1)] | 28.1
8 | O=P(O)(O)CN(Cc1ccccc1)CP(=O)(O)O [N-Benzyliminobis(methylenephosphonic acid) (7)] | 11.9
9 | CCN(CP(=O)(O)O)CP(=O)(O)O [N-Ethyliminobis(methylenephosphonic acid) (2)] | 22.1
10 | O=P(O)(O)CN(CP(=O)(O)O)C1CCCCC1 [N-Cyclohexyliminobis(methylenephosphonic acid) (10)] | 9.96
11 | O=P(O)(O)CN1CCCN(CP(=O)(O)O)CC1 [Homopiperazine-1,4-bis(methylenephosphonic acid) (11)] | 28.7
